Tests used:
CCRF-CEM = test: Growth inhibition of human CCRF-CEM cells after 48 hrs by sulforhodamine B assay; format: functional
K562 = test: Growth inhibition of human K562 cells after 48 hrs by sulforhodamine B assay; format: functional; settings: K562, 48 h
SR = test: Growth inhibition of human SR cells after 48 hrs by sulforhodamine B assay; format: functional
A549 = test: Growth inhibition of human A549 cells after 48 hrs by sulforhodamine B assay; format: functional; settings: A549, 48 h
HCC 2998 = test: Growth inhibition of human HCC2998 cells after 48 hrs by sulforhodamine B assay; format: functional; settings: HCC 2998, 48 h
HCT-116 = test: Growth inhibition of human HCT116 cells after 48 hrs by sulforhodamine B assay; format: functional; settings: HCT-116, 48 h
HT-29 = test: Growth inhibition of human HT-29 cells after 48 hrs by sulforhodamine B assay; format: functional; settings: HT-29, 48 h
KM12 = test: Growth inhibition of human KM12 cells after 48 hrs by sulforhodamine B assay; format: functional; settings: KM12, 48 h
SF-268 = test: Growth inhibition of human SF268 cells after 48 hrs by sulforhodamine B assay; format: functional; settings: SF-268, 48 h
SF-295 = test: Growth inhibition of human SF295 cells after 48 hrs by sulforhodamine B assay; format: functional; settings: SF-295, 48 h
SF-539 = test: Growth inhibition of human SF539 cells after 48 hrs by sulforhodamine B assay; format: functional; settings: SF-539, 48 h
SNB-75 = test: Growth inhibition of human SNB75 cells after 48 hrs by sulforhodamine B assay; format: functional; settings: SNB-75, 48 h
M14 = test: Growth inhibition of human M14 cells after 48 hrs by sulforhodamine B assay; format: functional; settings: M14, 48 h
Malme-3M = test: Growth inhibition of human MALME-3M cells after 48 hrs by sulforhodamine B assay; format: functional
SK-MEL-2 = test: Growth inhibition of human SK-MEL-2 cells after 48 hrs by sulforhodamine B assay; format: functional; settings: SK-MEL-2, 48 h
UACC-257 = test: Growth inhibition of human UACC257 cells after 48 hrs by sulforhodamine B assay; format: functional; settings: UACC-257, 48 h
UACC-62 = test: Growth inhibition of human UACC62 cells after 48 hrs by sulforhodamine B assay; format: functional; settings: UACC-62, 48 h
IGROV-1 = test: Growth inhibition of human IGROV1 cells after 48 hrs by sulforhodamine B assay; format: functional; settings: IGROV-1, 48 h
OVCAR-3 = test: Growth inhibition of human OVCAR-3 cells after 48 hrs by sulforhodamine B assay; format: functional; settings: OVCAR-3, 48 h
OVCAR-4 = test: Growth inhibition of human OVCAR4 cells after 48 hrs by sulforhodamine B assay; format: functional; settings: OVCAR-4, 48 h
OVCAR-5 = test: Growth inhibition of human OVCAR5 cells after 48 hrs by sulforhodamine B assay; format: functional; settings: OVCAR-5, 48 h
OVCAR-8 = test: Growth inhibition of human OVCAR8 cells after 48 hrs by sulforhodamine B assay; format: functional; settings: OVCAR-8, 48 h
SK-OV-3 = test: Growth inhibition of human SKOV3 cells after 48 hrs by sulforhodamine B assay; format: functional; settings: SK-OV-3, 48 h
786-0 = test: Growth inhibition of human 786-0 cells after 48 hrs by sulforhodamine B assay; format: functional; settings: 786-0, 48 h
A498 = test: Growth inhibition of human A498 cells after 48 hrs by sulforhodamine B assay; format: functional; settings: A498, 48 h
ACHN = test: Growth inhibition of human ACHN cells after 48 hrs by sulforhodamine B assay; format: functional
CAKI-1 = test: Growth inhibition of human Caki1 cells after 48 hrs by sulforhodamine B assay; format: functional; settings: CAKI-1, 48 h
RXF 393 = test: Growth inhibition of human RXF393 cells after 48 hrs by sulforhodamine B assay; format: functional; settings: RXF 393, 48 h
TK-10 = test: Growth inhibition of human TK10 cells after 48 hrs by sulforhodamine B assay; format: functional; settings: TK-10, 48 h
UO-31 = test: Growth inhibition of human UO31 cells after 48 hrs by sulforhodamine B assay; format: functional; settings: UO-31, 48 h
PC-3 = test: Growth inhibition of human PC3 cells after 48 hrs by sulforhodamine B assay; format: functional; settings: PC-3, 48 h
DU-145 = test: Growth inhibition of human DU145 cells after 48 hrs by sulforhodamine B assay; format: functional; settings: DU-145, 48 h
MCF7 = test: Growth inhibition of human MCF7 cells after 48 hrs by sulforhodamine B assay; format: functional; settings: MCF7, 48 h
[1] = Growth inhibition of human Hs 578T cells after 48 hrs by sulforhodamine B assay; format: functional
MDA-MB-435 = test: Growth inhibition of human MDA-MB-435 cells after 48 hrs by sulforhodamine B assay; format: functional; settings: MDA-MB-435, 48 h
MDA-N = test: Growth inhibition of human MDA-N cells after 48 hrs by sulforhodamine B assay; format: functional
BT-549 = test: Growth inhibition of human BT549 cells after 48 hrs by sulforhodamine B assay; format: functional; settings: BT-549, 48 h
T47D = test: Growth inhibition of human T47D cells after 48 hrs by sulforhodamine B assay; format: functional
Plasmodium falciparum [2] = test: Antimalarial activity after 72 hrs against chloroquine-sensitive Plasmodium falciparum D6 infected in erythrocytes by LDH assay; format: functional, organism-based; settings: D6, 72 h
[3] = Selectivity index, ratio of TC50 for african green monkey (Cercopithecus aethiops) Vero cells to IC50 for chloroquine-sensitive Plasmodium falciparum D6; format: toxicity, cell-based
Plasmodium falciparum [4] = test: Antimalarial activity after 72 hrs against chloroquine-resistant Plasmodium falciparum W2 infected erythrocytes by LDH assay; format: functional, organism-based; settings: W2, 72 h
[5] = Cytotoxicity against african green monkey Vero cells after 48 hrs by neutral red assay; format: cell-based; settings: chlorocebus sabaeus, read-out: TC50
HOP-62 = test: Growth inhibition of human HOP62 cells after 48 hrs by sulforhodamine B assay; format: functional; settings: HOP-62, 48 h
HOP-92 = test: Growth inhibition of human HOP92 cells after 48 hrs by sulforhodamine B assay; format: functional; settings: HOP-92, 48 h
NCI-H226 = test: Growth inhibition of human NCI-H226 cells after 48 hrs by sulforhodamine B assay; format: functional; settings: NCI-H226, 48 h
NCI-H23 = test: Growth inhibition of human NCI-H23 cells after 48 hrs by sulforhodamine B assay; format: functional; settings: NCI-H23, 48 h
NCI-H322M = test: Growth inhibition of human NCI-H322M cells after 48 hrs by sulforhodamine B assay; format: functional
NCI-H460 = test: Growth inhibition of human NCI-H460 cells after 48 hrs by sulforhodamine B assay; format: functional; settings: NCI-H460, 48 h
NCI-H522 = test: Growth inhibition of human NCI-H522 cells after 48 hrs by sulforhodamine B assay; format: functional; settings: NCI-H522, 48 h
COLO 205 = test: Growth inhibition of human COLO205 cells after 48 hrs by sulforhodamine B assay; format: functional; settings: COLO 205, 48 h

**Q.** Which GI50 (CCRF-CEM) does the source give for `COCC(CO[C@H]1O[C@@H]2O[C@@]3(C)CC[C@H]4[C@H](C)CC[C@@H]([C@H]1C)[C@@]24OO3)O[C@H]1O[C@@H]2O[C@@]3(C)CC[C@H]4[C@H](C)CC[C@@H]([C@H]1C)[C@@]24OO3` (stereo not given in full) here?
**A.** 19 nM

**Q.** And the GI50 (K562)?
**A.** 27 nM

**Q.** And the GI50 (SR)?
**A.** 15 nM

**Q.** And the GI50 (A549)?
**A.** 61 nM

**Q.** What about the GI50 (HCC 2998) of the same compound?
**A.** 108 nM

**Q.** What about the GI50 (HCT-116) of the same compound?
**A.** 12 nM

**Q.** What about the GI50 (HT-29) of the same compound?
**A.** 19 nM

**Q.** What about the GI50 (KM12) of the same compound?
**A.** 18 nM

**Q.** And the GI50 (SF-268)?
**A.** 6290 nM

**Q.** And the GI50 (SF-295)?
**A.** 4630 nM

**Q.** What about the GI50 (SF-539) of the same compound?
**A.** 4040 nM

**Q.** What about the GI50 (SNB-75) of the same compound?
**A.** 22600 nM

**Q.** What about the GI50 (M14) of the same compound?
**A.** 49 nM

**Q.** What about the GI50 (Malme-3M) of the same compound?
**A.** 8130 nM

**Q.** And the GI50 (SK-MEL-2)?
**A.** 122 nM

**Q.** What about the GI50 (UACC-257) of the same compound?
**A.** 159 nM

**Q.** And the GI50 (UACC-62)?
**A.** 135 nM

**Q.** And the GI50 (IGROV-1)?
**A.** 4200 nM

**Q.** What about the GI50 (OVCAR-3) of the same compound?
**A.** 65 nM

**Q.** What about the GI50 (OVCAR-4) of the same compound?
**A.** 5690 nM

**Q.** What about the GI50 (OVCAR-5) of the same compound?
**A.** 104 nM

**Q.** What about the GI50 (OVCAR-8) of the same compound?
**A.** 130 nM

**Q.** And the GI50 (SK-OV-3)?
**A.** 10900 nM

**Q.** And the GI50 (786-0)?
**A.** 185 nM

**Q.** And the GI50 (A498)?
**A.** 148 nM

**Q.** What about the GI50 (ACHN) of the same compound?
**A.** 189 nM

**Q.** What about the GI50 (CAKI-1) of the same compound?
**A.** 192 nM

**Q.** What about the GI50 (RXF 393) of the same compound?
**A.** 2970 nM

**Q.** What about the GI50 (TK-10) of the same compound?
**A.** 58 nM

**Q.** And the GI50 (UO-31)?
**A.** 125 nM

**Q.** And the GI50 (PC-3)?
**A.** 19 nM

**Q.** And the GI50 (DU-145)?
**A.** 8340 nM

**Q.** What about the GI50 (MCF7) of the same compound?
**A.** 150 nM

**Q.** What about the GI50 [1] of the same compound?
**A.** 74 nM

**Q.** What about the GI50 (MDA-MB-435) of the same compound?
**A.** 443 nM

**Q.** What about the GI50 (MDA-N) of the same compound?
**A.** 518 nM

**Q.** What about the GI50 (BT-549) of the same compound?
**A.** 7520 nM

**Q.** And the GI50 (T47D)?
**A.** 14 nM

**Q.** And the IC50 (Plasmodium falciparum [2])?
**A.** 17200 nM

**Q.** What about the selectivity ratio [3] of the same compound?
**A.** > 43

**Q.** And the IC50 (Plasmodium falciparum [4])?
**A.** 4700 nM

**Q.** What about the CC50 at 48 h [5] of the same compound?
**A.** > 745000 nM

**Q.** And the GI50 (HOP-62)?
**A.** 5620 nM

**Q.** And the GI50 (HOP-92)?
**A.** 71 nM

**Q.** And the GI50 (NCI-H226)?
**A.** 87 nM

**Q.** What about the GI50 (NCI-H23) of the same compound?
**A.** 81 nM

**Q.** What about the GI50 (NCI-H322M) of the same compound?
**A.** 5960 nM

**Q.** What about the GI50 (NCI-H460) of the same compound?
**A.** 81 nM

**Q.** And the GI50 (NCI-H522)?
**A.** 58 nM

**Q.** And the GI50 (COLO 205)?
**A.** 11 nM
